Experiment in all cases: DTP human tumour cell line panel, 48 h
Assay [1] relates to UACC-62.
Assay [2] has as its system RXF 393.
Assay [3] relates to HL-60.
In assay [4] the test system is HOP-92.
Assay [5] deals with SW-620.
Assay [6] has as its system KM12.
The test system of assay [7] is OVCAR-8.
Assay [8] concerns SK-MEL-5.
In assay [9] the test system is SNB-19.
The subject of assay [10] is EKVX.
For assay [11], the system named is HCC 2998.
The subject of assay [12] is OVCAR-3.
The subject of assay [13] is UO-31.
For assay [14], the system named is SF-268.
Assay [15] relates to NCI-H522.
The test system of assay [16] is ACHN.
Assay [17] concerns HT-29.
For assay [18], the system named is TK-10.
Assay [19] deals with OVCAR-4.
Assay [20] has as its system 786-0.

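Growth conditions: 96-well plates. Treatment: test compound, 48 hours, 5 concentrations. Analysis: linear interpolation between bracketing concentrations; unreached endpoints set to highest concentration. GI50: concentration for 50% inhibition of growth.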 The source made the active and inactive calls. No stated cut-off is given here; in the data, active = GI50 up to about 1.1 µM and inactive = higher.

Eleven molecules from ChEMBL document CHEMBL1201862, “PubChem BioAssay data set” (2004) can be followed below.

For `FC(F)(F)c1ccc2c(c1)N(CCCNCCN1CCOCC1)c1ccccc1S2`, the GI50 in assay [1] is 13.2 µM (inactive); in assay [2], 2.62 µM (inactive); in [3] it was 6.07 µM (inactive); in [4], 3.4 µM (inactive); in assay [5] it was 10.2 µM (inactive); in [6] it was 11.6 µM (inactive). The GI50 in [7] was 16.6 µM (inactive); in assay [8], 3.8 µM (inactive); in assay [9], 16.1 µM (inactive); in assay [10] it was 15 µM (inactive); in assay [11], 2.23 µM (inactive); in [12], 11.4 µM (inactive). The GI50 is 3.83 µM (inactive) in assay [13]; 15.9 µM (inactive) in assay [14]; 14.9 µM (inactive) in assay [15]; 12.3 µM (inactive) in assay [16]; 3.24 µM (inactive) in assay [17]; 12.7 µM (inactive) in assay [18].
Consider `CCOC(=O)c1c(N2CCCC2)[nH]c(=O)c(C(c2cccs2)c2c(O)c(C(=O)OCC)c(N3CCCC3)[nH]c2=O)c1O`, for which the GI50 in assay [1], in assay [2], in [19], in [4], in assay [5] and in assay [6] was > 100 µM (inactive) in each case. Besides, the GI50 in assay [7], in [8], in assay [9], in [10], in [11] and in assay [12] was > 100 µM (inactive) in each case. Moreover, the GI50 in [13], in [14], in [15], in assay [20], in [16] and in assay [17] was > 100 µM (inactive) each time. The GI50 in assay [18] is > 100 µM (inactive).
For the molecule `CSc1nc(NCc2ccccc2)c2cnn(COCCO)c2n1`, the GI50 in [1] was 43.9 µM (inactive); in [2], 29 µM (inactive); in assay [3], 42.7 µM (inactive); in assay [19], 29.4 µM (inactive); in [4], 18.2 µM (inactive); in assay [5] it was > 100 µM (inactive). In addition, the GI50 in assay [6] was 80 µM (inactive); in assay [7] it was 42.7 µM (inactive); in assay [8], 41.5 µM (inactive); in assay [10], 21.4 µM (inactive); in assay [12], 57.8 µM (inactive); in [13] it was 35.9 µM (inactive). Also, the GI50 in assay [14] was 43.8 µM (inactive); in assay [15], 28.6 µM (inactive); in assay [20], > 100 µM (inactive); in assay [16], 31.9 µM (inactive); in assay [17] it was 37.8 µM (inactive); in [18], 61.9 µM (inactive).
Turning to `CCOC(=O)C1Nc2ccc([N+](=O)[O-])cc2[C@H]2OCC[C@@H]12` (stereo partly specified), the GI50 in assay [1], in assay [2], in assay [3], in assay [19], in assay [5] and in assay [6] was > 100 µM (inactive) in each case. Further, the GI50 in [7], in [8], in assay [9], in assay [10], in [11] and in assay [12] was > 100 µM (inactive) each time. In addition, the GI50 in assay [14], in assay [15], in assay [20], in assay [16], in [17] and in [18] was > 100 µM (inactive) throughout.
Turning to `C=CCSc1nnc2cc(CN3CCCC3)c(-c3ccc(Cl)cc3)nn12`, the GI50 is 14.4 µM (inactive) in [1]; 15.1 µM (inactive) in assay [2]; 17.9 µM (inactive) in [3]; 20.3 µM (inactive) in [19]; 16.1 µM (inactive) in assay [4]; 26.5 µM (inactive) in assay [5]. The GI50 is 24.8 µM (inactive) in [6]; 23.3 µM (inactive) in [7]; 15.5 µM (inactive) in assay [8]; 24.6 µM (inactive) in [9]; 19 µM (inactive) in [10]; 17.1 µM (inactive) in [12]. The GI50 was 16 µM (inactive) in assay [13]; 20.8 µM (inactive) in assay [14]; 18.9 µM (inactive) in [15]; 17.1 µM (inactive) in assay [20]; 15.7 µM (inactive) in assay [16]; 15 µM (inactive) in [17]. Further, the GI50 in [18] was 20.7 µM (inactive).
As to `N#Cc1ccsc1Nc1ccccc1[N+](=O)[O-]`, the GI50 in assay [1] is > 100 µM (inactive); in assay [2] it was 86.9 µM (inactive); in [19], > 100 µM (inactive); in [4], 68.7 µM (inactive); in assay [5], > 100 µM (inactive); in assay [6] it was > 100 µM (inactive). For the same molecule, the GI50 in assay [7] is > 100 µM (inactive); in assay [9] it was 52.2 µM (inactive); in assay [10], 36.6 µM (inactive); in [11], > 100 µM (inactive); in assay [12], > 100 µM (inactive); in assay [13], > 100 µM (inactive). Also, the GI50 in assay [14] was 47 µM (inactive); in assay [15] it was 63.7 µM (inactive); in assay [20] it was > 100 µM (inactive); in assay [16], > 100 µM (inactive).
`COc1ccc(/C=C2/SC(c3c(O)ccc4ccccc34)N(NC(=O)CCCCCCCCC(=O)NN3C(=O)/C(=C\c4ccc(OC)c(OC)c4)SC3c3c(O)ccc4ccccc34)C2=O)cc1OC` (stereo unspecified): the GI50 in assay [1] is 1.56 µM (inactive); in [2] it was 3.56 µM (inactive); in [19], 1.64 µM (inactive); in assay [4], 1.09 µM (active); in assay [5] it was 1.53 µM (inactive); in assay [6] it was 5.16 µM (inactive). Besides, the GI50 in [7] was 0.553 µM (active); in assay [8] it was 0.318 µM (active); in assay [9], 9.2 µM (inactive); in [10], 2.12 µM (inactive); in [11] it was 5.25 µM (inactive); in assay [12] it was 0.33 µM (active). Besides, the 50% growth inhibitory concentration (GI50) in assay [13] is 0.486 µM (active); in assay [14], 0.418 µM (active); in assay [15], 0.472 µM (active); in [20], 0.519 µM (active); in assay [16], 0.755 µM (active); in assay [17] it was 3.65 µM (inactive). Besides, the GI50 in assay [18] is 10.4 µM (inactive).
Regarding `CCN(CC(=O)O)C(=O)c1cccnc1`, the GI50 in [1], in assay [2], in [19], in [4], in assay [5] and in assay [6] was > 100 µM (inactive) throughout. Further, the GI50 in assay [7], in assay [9], in [10], in [11], in [12] and in [13] was > 100 µM (inactive) throughout. The GI50 in [14], in [15], in assay [20], in assay [16], in assay [17] and in assay [18] was > 100 µM (inactive) in each case.
In the case of `O=C(C/C=C/c1ccccc1)c1ccccc1`, the GI50 is 12.6 µM (inactive) in [1]; 15.8 µM (inactive) in [2]; 16.1 µM (inactive) in assay [3]; 29 µM (inactive) in assay [4]; 31.2 µM (inactive) in assay [5]; 11.1 µM (inactive) in [6]. Besides, the GI50 in assay [7] is 15.7 µM (inactive); in assay [8] it was 19.5 µM (inactive); in [10] it was 35.5 µM (inactive); in assay [11] it was 18.3 µM (inactive); in [12] it was 41.6 µM (inactive); in [13], 14.1 µM (inactive). The GI50 in assay [14] was 20.7 µM (inactive); in assay [15], 16.9 µM (inactive); in assay [20], 21.6 µM (inactive); in assay [16] it was 16.6 µM (inactive); in assay [17], 18.2 µM (inactive); in assay [18], 23.2 µM (inactive).
Regarding `CCC(C)[C@H]1C(=O)N=C(N)N1C(=O)OCc1ccccc1` (stereo partly specified), the GI50 in assay [1], in [2], in [3], in assay [19], in assay [5] and in [6] was > 100 µM (inactive) throughout. The GI50 in assay [7], in assay [8], in [9], in assay [10], in assay [11] and in [12] was > 100 µM (inactive) each time. Further, the GI50 is 78 µM (inactive) in [13]; > 100 µM (inactive) in assay [14]; > 100 µM (inactive) in assay [15]; > 100 µM (inactive) in assay [20]; > 100 µM (inactive) in assay [16]; > 100 µM (inactive) in assay [17]. The GI50 in [18] was > 100 µM (inactive).
Turning to `COc1ccc2c(c1)CCCN1Cc3cc(OC)c(OC)cc3CC21` (stereo unspecified), the GI50 is 86.3 µM (inactive) in assay [1]; 25.6 µM (inactive) in assay [2]; 43.7 µM (inactive) in assay [19]; 15.9 µM (inactive) in assay [4]; > 100 µM (inactive) in assay [5]; > 100 µM (inactive) in assay [6]. Also, the GI50 in assay [7] was > 100 µM (inactive); in [8] it was 37.8 µM (inactive); in assay [9] it was > 100 µM (inactive); in [10] it was > 100 µM (inactive); in assay [11] it was 15.8 µM (inactive); in [12], 82.2 µM (inactive). Further, the GI50 is 48.8 µM (inactive) in assay [13]; 50.9 µM (inactive) in [14]; 75.5 µM (inactive) in assay [15]; 73.3 µM (inactive) in assay [20]; > 100 µM (inactive) in assay [16]; 28.1 µM (inactive) in [17]. The GI50 in assay [18] was > 100 µM (inactive).

One may read the GI50 as the concentration that inhibits growth by half.
